Measurements published in the supplement of paper PMC10307832.

Legend:
Assay in all cases: relative viability (nuclei count vs DMSO), 5 days (fraction); higher = more cells survive
CUDC-101 + Pemetrexed = compound: C#Cc1cccc(Nc2ncnc3cc(OC)c(OCCCCCCC(=O)NO)cc23)c1 [CUDC-101] + Nc1nc2[nH]cc(CCc3ccc(C(=O)N[C@@H](CCC(=O)O)C(=O)O)cc3)c2c(=O)[nH]1 [Pemetrexed] (partner 0.2 µM)
Method in brief: (§1)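 Relative viability equals treated-well nuclei counts divided by vehicle-well nuclei counts. Counts came from 4× images of lung cancer cell lines grown in 1536-well plates for 5 days after pin-tool dosing on the day after seeding. Dosing used one drug alone or a fixed anchor-drug dose plus five library-drug doses (not always all listed) in √10 steps, and values are medians of duplicate plates.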

[1] = compound: C1=CC=C2C(=C1)N=C(S2)C(C#N)C3=NC(=NC=C3)NCCC4=CN=CC=C4 + O=C(c1cc(Cc2n[nH]c(=O)c3ccccc23)ccc1F)N1CCN(C(=O)C2CC2)CC1 [Olaparib] (partner 8 µM)
Method in brief: as §1

Vandetanib + Bortezomib = compound: COc1cc2/c(=N/c3ccc(Br)cc3F)nc[nH]c2cc1OCC1CCN(C)CC1 [Vandetanib] + CC(C)C[C@H](NC(=O)[C@H](Cc1ccccc1)NC(=O)c1cnccn1)B(O)O [Bortezomib] (partner 0.002 µM)
Method in brief: as §1

Vandetanib + Luminespib = compound: COc1cc2/c(=N/c3ccc(Br)cc3F)nc[nH]c2cc1OCC1CCN(C)CC1 [Vandetanib] + CCNC(=O)c1noc(-c2cc(C(C)C)c(O)cc2O)c1-c1ccc(CN2CCOCC2)cc1 [Luminespib] (partner 0.01 µM)
Method in brief: as §1

Q: Which relative viability (CUDC-101 + Pemetrexed; first compound 0.01 µM) does the source give for UMC-11 here?
A: Its relative viability is 0.78.

Q: What about the relative viability (CUDC-101 + Pemetrexed; first compound 0.03162 µM) of the same cell line?
A: The relative viability was 0.72.

Q: What about the relative viability (CUDC-101 + Pemetrexed; first compound 0.1 µM) of the same cell line?
A: The relative viability was 0.639.

Q: And the relative viability (CUDC-101 + Pemetrexed; first compound 0.3162 µM)?
A: Its relative viability is 0.415.

Q: What about the relative viability (CUDC-101 + Pemetrexed; first compound 1 µM) of the same cell line?
A: The relative viability was 0.219.

Q: And the relative viability ([1]; first compound 0.01581 µM)?
A: Its relative viability is 0.344.

Q: What about the relative viability ([1]; first compound 0.05 µM) of the same cell line?
A: Its relative viability is 0.349.

Q: What about the relative viability ([1]; first compound 0.1581 µM) of the same cell line?
A: Its relative viability is 0.366.

Q: What about the relative viability ([1]; first compound 0.5 µM) of the same cell line?
A: Its relative viability is 0.382.

Q: What about the relative viability (Vandetanib + Bortezomib; first compound 0.02 µM) of the same cell line?
A: The relative viability was 0.743.

Q: And the relative viability (Vandetanib + Bortezomib; first compound 0.06325 µM)?
A: The relative viability was 0.708.

Q: What about the relative viability (Vandetanib + Bortezomib; first compound 0.2 µM) of the same cell line?
A: The relative viability was 0.61.

Q: And the relative viability (Vandetanib + Bortezomib; first compound 0.6325 µM)?
A: The relative viability was 0.725.

Q: And the relative viability (Vandetanib + Bortezomib; first compound 2 µM)?
A: The relative viability was 0.746.

Q: And the relative viability (Vandetanib + Luminespib; first compound 0.02 µM)?
A: Its relative viability is 1.06.

Q: What about the relative viability (Vandetanib + Luminespib; first compound 0.06325 µM) of the same cell line?
A: Its relative viability is 1.01.

Q: What about the relative viability (Vandetanib + Luminespib; first compound 0.2 µM) of the same cell line?
A: The relative viability was 0.225.

Q: What about the relative viability (Vandetanib + Luminespib; first compound 0.6325 µM) of the same cell line?
A: Its relative viability is 0.998.

Q: What about the relative viability (Vandetanib + Luminespib; first compound 2 µM) of the same cell line?
A: Its relative viability is 1.03.
